Results as given in ChEMBL document CHEMBL1201862, “PubChem BioAssay data set” (2004).
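Cultured in 96-well plates, cells were exposed to test compound for 48 hours across five concentrations. At the GI50, growth is halved.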 Calls of active or inactive are those of the source. Rule as the data show it: active = GI50 up to about 1.1 µM and inactive = higher.

Tests used:
Test in all cases: DTP human tumour cell line panel, 48 h
HT-29 = test system: HT-29
NCI-H522 = test system: NCI-H522
MDA-MB-231 = test system: MDA-MB-231
NCI-H460 = test system: NCI-H460
MDA-N = test system: MDA-N
NCI-H226 = test system: NCI-H226
KM12 = test system: KM12
SK-MEL-5 = test system: SK-MEL-5
SR = test system: SR
HCT-15 = test system: HCT-15
OVCAR-8 = test system: OVCAR-8
HL-60 = test system: HL-60
M19-MEL = test system: M19-MEL
A498 = test system: A498
SK-OV-3 = test system: SK-OV-3
SF-295 = test system: SF-295
TK-10 = test system: TK-10
RPMI-8226 = test system: RPMI-8226
KM-20L2 = test system: KM-20L2
HOP-18 = test system: HOP-18

SMILES	GI50 (HT-29)	GI50 (NCI-H522)	GI50 (MDA-MB-231)	GI50 (NCI-H460)	GI50 (MDA-N)	GI50 (NCI-H226)	GI50 (KM12)	GI50 (SK-MEL-5)	GI50 (SR)	GI50 (HCT-15) [nM]	GI50 (OVCAR-8)	GI50 (HL-60)	GI50 (M19-MEL)	GI50 (A498)	GI50 (SK-OV-3)	GI50 (SF-295)	GI50 (TK-10)	GI50 (RPMI-8226)	GI50 (KM-20L2)	GI50 (HOP-18)
BrC(Br)=C1C(=C(Br)Br)C(Br)C1Br (stereo not drawn)	362 nM (active)	139 nM (active)	1120 nM (inactive)	114 nM (active)	368 nM (active)	275 nM (active)	610 nM (active)	826 nM (active)	43 nM (active)	301	550 nM (active)	< 12.5 nM (active)	630 nM (active)	1060 nM (active)	3330 nM (inactive)	778 nM (active)	682 nM (active)	158 nM (active)	1380 nM (inactive)	2910 nM (inactive)
COc1cc2c(c(OC)c1OC)-c1ccc(SC)c(=O)cc1C(CC(=O)Oc1cccc([N+](=O)[O-])c1)C2 (stereo not drawn)	362 nM (active)	493 nM (active)	–	450 nM (active)	–	764 nM (active)	424 nM (active)	592 nM (active)	459 nM (active)	400	767 nM (active)	255 nM (active)	458 nM (active)	27.7 nM (active)	73.6 nM (active)	342 nM (active)	> 90800 nM (inactive)	647 nM (active)	585 nM (active)	> 100000 nM (inactive)
C=C1CC2CC[C@@]34C[C@H]5O[C@@H]6C(O[C@H]7CC[C@H](CC(=O)OC8[C@H](C)C9OC%10C[C@]%11(C[C@@H]%12O[C@]%13(C[C@H](C)[C@@H]%14O[C@H]([C@H](O)C[C@H](O)CO)C[C@@H]%14O%13)C[C@H](C)[C@@H]%12O%11)OC%10CC9O[C@H]8C[C@H]8O[C@H](CC[C@@H]1O2)C[C@@H](C)C8=C)O[C@H]7[C@@H]6O3)[C@@H]5O4 (stereo partly drawn)	0.372 nM (active)	0.211 nM (active)	0.728 nM (active)	0.859 nM (active)	0.1 nM (active)	2.31 nM (active)	0.46 nM (active)	0.24 nM (active)	0.498 nM (active)	0.935	2.22 nM (active)	0.237 nM (active)	0.618 nM (active)	1.08 nM (active)	2.21 nM (active)	0.46 nM (active)	6.81 nM (active)	0.255 nM (active)	0.395 nM (active)	< 10 nM (active)
